Earlier results as cited in patent US7625888B2, “Fused triazole derivatives as dipeptidyl peptidase-IV inhibitors for the treatment or prevention of diabetes” (Merck & Co., Inc., priority 2004, dated 2009).
Blank lines part the entries; values can stand above or below the molecule they belong to.

Legend:
[1] = tested on: cardiac allograft; settings: rats; doubled from day 7
[2] = tested on: hematopoiesis; settings: mouse, cyclophosphamide-induced neutropenia
[3] = biological target: T1, DPP-IV (Homo sapiens, UniProt P27487)
T1 construct: GRF is rapidly degraded in plasma to GRF[3-44]
T1 sequence (P27487 39-766 limits assumed, species assumed): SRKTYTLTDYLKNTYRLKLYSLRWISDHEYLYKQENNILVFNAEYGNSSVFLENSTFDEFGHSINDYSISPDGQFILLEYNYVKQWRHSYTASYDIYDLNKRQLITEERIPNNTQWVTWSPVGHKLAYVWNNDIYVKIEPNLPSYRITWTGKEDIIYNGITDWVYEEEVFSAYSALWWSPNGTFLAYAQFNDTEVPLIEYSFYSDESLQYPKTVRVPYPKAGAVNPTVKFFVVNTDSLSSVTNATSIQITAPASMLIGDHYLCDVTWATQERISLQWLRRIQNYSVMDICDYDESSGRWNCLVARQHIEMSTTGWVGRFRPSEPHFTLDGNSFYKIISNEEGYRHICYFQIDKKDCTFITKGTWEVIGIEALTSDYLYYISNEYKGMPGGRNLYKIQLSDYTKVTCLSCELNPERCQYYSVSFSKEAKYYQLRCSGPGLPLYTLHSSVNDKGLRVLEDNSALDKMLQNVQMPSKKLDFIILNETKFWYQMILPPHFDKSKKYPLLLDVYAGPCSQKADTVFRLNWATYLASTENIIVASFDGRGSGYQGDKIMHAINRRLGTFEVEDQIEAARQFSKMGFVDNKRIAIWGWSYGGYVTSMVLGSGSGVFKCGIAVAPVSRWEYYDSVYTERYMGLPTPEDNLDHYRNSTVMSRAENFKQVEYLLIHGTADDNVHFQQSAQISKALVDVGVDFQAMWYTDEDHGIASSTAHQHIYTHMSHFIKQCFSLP

Molecule: CC(C)N1CCC(c2ccccc2)(c2ccccc2)CC1 [Prodipine, Pro-Pro-diphenyl-phosphonate]
cardiac allograft survival [1]: 14 day

Molecule: CC(C)[C@H](N)C(=O)N1CCC[C@H]1B(O)O [Val-Boro-Pro]
effect on hematopoiesis [2]: stimulated hematopoiesis

degradation of GRF in plasma to GRF[3-44] [3]: prevented
Molecule: diprotin A
